Results: the NIST ThermoML archive (doi:10.1021/je0201323)
± gives the expanded uncertainty stated by the source.

Assay: xn = mol fraction of the nth substance listed
Settings: for mass density: 101.3 kPa, Liquid, vibrating tube; for surface tension liquid-gas: Pendant drop shape

Cc1ccccc1 [toluene] + CCCCCCC
Settings	mass density [kg/m3]	surface tension liquid-gas [mN/m]
278.15 K, x2 = 0	880.3 ± 0.2	–
278.15 K, x2 = 0.15	843.7 ± 0.3	–
278.15 K, x2 = 0.299	811.3 ± 0.3	–
278.15 K, x2 = 0.449	782 ± 0.3	–
278.15 K, x2 = 0.595	756.4 ± 0.3	–
278.15 K, x2 = 0.749	732.6 ± 0.3	–
283.15 K, x2 = 0	875.9 ± 0.2	–
283.15 K, x2 = 0.15	839.3 ± 0.3	–
283.15 K, x2 = 0.299	807 ± 0.3	–
283.15 K, x2 = 0.449	777.8 ± 0.3	–
283.15 K, x2 = 0.595	752.2 ± 0.3	–
283.15 K, x2 = 0.749	728.4 ± 0.3	–
287.81 K, x2 = 0	–	28.93 ± 0.31
287.81 K, x2 = 0.299	–	24.49 ± 0.28
287.81 K, x2 = 0.449	–	23.38 ± 0.27
287.81 K, x2 = 0.595	–	22.41 ± 0.27
287.81 K, x2 = 0.749	–	21.58 ± 0.26
288.15 K, x2 = 0	871.4 ± 0.2	–
288.15 K, x2 = 0.15	834.9 ± 0.3	–
288.15 K, x2 = 0.299	802.7 ± 0.3	–
288.15 K, x2 = 0.449	773.5 ± 0.3	–
288.15 K, x2 = 0.595	747.9 ± 0.3	–
288.15 K, x2 = 0.749	724.2 ± 0.3	–
293.15 K, x2 = 0	866.9 ± 0.2	–
293.15 K, x2 = 0.15	830.5 ± 0.3	–
293.15 K, x2 = 0.299	798.3 ± 0.3	–
293.15 K, x2 = 0.449	769.1 ± 0.3	–
293.15 K, x2 = 0.595	743.6 ± 0.3	–
293.15 K, x2 = 0.749	719.9 ± 0.3	–
297.82 K, x2 = 0	–	27.76 ± 0.3
297.82 K, x2 = 0.15	–	25.16 ± 0.28
297.82 K, x2 = 0.299	–	23.47 ± 0.27
297.82 K, x2 = 0.449	–	22.17 ± 0.26
297.82 K, x2 = 0.595	–	21.35 ± 0.26
297.82 K, x2 = 0.749	–	20.56 ± 0.25
298.15 K, x2 = 0	862.4 ± 0.2	–
298.15 K, x2 = 0.15	826 ± 0.3	–
298.15 K, x2 = 0.299	794.1 ± 0.3	–
298.15 K, x2 = 0.449	764.7 ± 0.3	–
298.15 K, x2 = 0.595	739.2 ± 0.3	–
298.15 K, x2 = 0.749	715.6 ± 0.3	–
303.15 K, x2 = 0	857.8 ± 0.2	–
303.15 K, x2 = 0.15	821.5 ± 0.3	–
303.15 K, x2 = 0.299	789.4 ± 0.3	–
303.15 K, x2 = 0.449	760.3 ± 0.3	–
303.15 K, x2 = 0.595	734.8 ± 0.3	–
303.15 K, x2 = 0.749	711.2 ± 0.3	–
307.86 K, x2 = 0	–	26.6 ± 0.29
307.86 K, x2 = 0.15	–	24.08 ± 0.27
307.86 K, x2 = 0.299	–	22.42 ± 0.26
307.86 K, x2 = 0.449	–	21.23 ± 0.25
307.86 K, x2 = 0.595	–	20.31 ± 0.25
307.86 K, x2 = 0.749	–	19.62 ± 0.25
308.15 K, x2 = 0	853.2 ± 0.2	–
308.15 K, x2 = 0.15	817 ± 0.3	–
308.15 K, x2 = 0.299	784.9 ± 0.3	–
308.15 K, x2 = 0.449	755.8 ± 0.3	–
308.15 K, x2 = 0.595	730.4 ± 0.3	–
308.15 K, x2 = 0.749	706.8 ± 0.3	–
313.15 K, x2 = 0	848.6 ± 0.2	–
313.15 K, x2 = 0.15	812.4 ± 0.3	–
313.15 K, x2 = 0.299	780.4 ± 0.3	–
313.15 K, x2 = 0.449	751.3 ± 0.3	–
313.15 K, x2 = 0.595	725.9 ± 0.3	–
313.15 K, x2 = 0.749	702.4 ± 0.3	–
317.86 K, x2 = 0	–	25.46 ± 0.28
317.86 K, x2 = 0.15	–	23.03 ± 0.26
317.86 K, x2 = 0.299	–	21.39 ± 0.25
317.86 K, x2 = 0.449	–	20.28 ± 0.25
317.86 K, x2 = 0.595	–	19.37 ± 0.24
317.86 K, x2 = 0.749	–	18.62 ± 0.24
318.15 K, x2 = 0	843.9 ± 0.2	–
318.15 K, x2 = 0.15	807.8 ± 0.3	–
318.15 K, x2 = 0.299	775.8 ± 0.3	–
318.15 K, x2 = 0.449	746.8 ± 0.3	–
318.15 K, x2 = 0.595	721.4 ± 0.3	–
318.15 K, x2 = 0.749	697.9 ± 0.3	–
323.15 K, x2 = 0	839.2 ± 0.2	–
323.15 K, x2 = 0.15	803.1 ± 0.3	–
323.15 K, x2 = 0.299	771.2 ± 0.3	–
323.15 K, x2 = 0.449	742.2 ± 0.3	–
323.15 K, x2 = 0.595	716.9 ± 0.3	–
323.15 K, x2 = 0.749	693.4 ± 0.3	–
327.88 K, x2 = 0	–	24.29 ± 0.27
327.88 K, x2 = 0.15	–	22.05 ± 0.26
327.88 K, x2 = 0.299	–	20.44 ± 0.25
327.88 K, x2 = 0.449	–	19.31 ± 0.24
327.88 K, x2 = 0.595	–	18.43 ± 0.24
327.88 K, x2 = 0.749	–	17.66 ± 0.23
328.15 K, x2 = 0	834.5 ± 0.2	–
328.15 K, x2 = 0.15	798.5 ± 0.3	–
328.15 K, x2 = 0.299	766.5 ± 0.3	–
328.15 K, x2 = 0.449	737.6 ± 0.3	–
328.15 K, x2 = 0.595	712.3 ± 0.3	–
328.15 K, x2 = 0.749	688.8 ± 0.3	–
333.15 K, x2 = 0	829.8 ± 0.2	–
333.15 K, x2 = 0.15	793.8 ± 0.2	–
333.15 K, x2 = 0.299	761.8 ± 0.3	–
333.15 K, x2 = 0.449	733 ± 0.3	–
333.15 K, x2 = 0.595	707.7 ± 0.3	–
333.15 K, x2 = 0.749	684.2 ± 0.3	–

CN(C)C=O [dimethylformamide] + Cc1ccccc1
Settings	mass density [kg/m3]	surface tension liquid-gas [mN/m]
278.15 K, x2 = 0	963 ± 0.3	–
278.15 K, x2 = 0.1502	949.1 ± 0.3	–
278.15 K, x2 = 0.3	935.7 ± 0.3	–
278.15 K, x2 = 0.4492	923.1 ± 0.3	–
278.15 K, x2 = 0.5998	911 ± 0.2	–
278.15 K, x2 = 0.7548	898.9 ± 0.2	–
283.15 K, x2 = 0	958.3 ± 0.3	–
283.15 K, x2 = 0.1502	944.4 ± 0.3	–
283.15 K, x2 = 0.3	931.1 ± 0.3	–
283.15 K, x2 = 0.4492	918.6 ± 0.3	–
283.15 K, x2 = 0.5998	906.5 ± 0.2	–
283.15 K, x2 = 0.7548	894.5 ± 0.2	–
287.81 K, x2 = 0	–	36.96 ± 0.38
287.81 K, x2 = 0.1502	–	35.22 ± 0.36
287.81 K, x2 = 0.3	–	33.42 ± 0.35
287.81 K, x2 = 0.4492	–	32.15 ± 0.34
287.81 K, x2 = 0.5998	–	31.2 ± 0.33
287.81 K, x2 = 0.7548	–	30.17 ± 0.32
288.15 K, x2 = 0	953.7 ± 0.3	–
288.15 K, x2 = 0.1502	939.9 ± 0.3	–
288.15 K, x2 = 0.3	926.6 ± 0.3	–
288.15 K, x2 = 0.4492	914.1 ± 0.3	–
288.15 K, x2 = 0.5998	902 ± 0.2	–
288.15 K, x2 = 0.7548	890 ± 0.2	–
293.15 K, x2 = 0	949.1 ± 0.3	–
293.15 K, x2 = 0.1502	935.3 ± 0.3	–
293.15 K, x2 = 0.3	922 ± 0.3	–
293.15 K, x2 = 0.4492	909.5 ± 0.2	–
293.15 K, x2 = 0.5998	897.5 ± 0.2	–
293.15 K, x2 = 0.7548	885.5 ± 0.2	–
297.82 K, x2 = 0	–	35.83 ± 0.37
297.82 K, x2 = 0.1502	–	33.97 ± 0.35
297.82 K, x2 = 0.3	–	32.5 ± 0.34
297.82 K, x2 = 0.4492	–	31.04 ± 0.33
297.82 K, x2 = 0.5998	–	30.04 ± 0.32
297.82 K, x2 = 0.7548	–	29.17 ± 0.31
298.15 K, x2 = 0	944.5 ± 0.3	–
298.15 K, x2 = 0.1502	930.6 ± 0.3	–
298.15 K, x2 = 0.3	917.4 ± 0.3	–
298.15 K, x2 = 0.4492	905 ± 0.2	–
298.15 K, x2 = 0.5998	892.9 ± 0.2	–
298.15 K, x2 = 0.7548	880.9 ± 0.2	–
303.15 K, x2 = 0	939.9 ± 0.3	–
303.15 K, x2 = 0.1502	926.1 ± 0.3	–
303.15 K, x2 = 0.3	912.9 ± 0.2	–
303.15 K, x2 = 0.4492	900.4 ± 0.2	–
303.15 K, x2 = 0.5998	888.4 ± 0.2	–
303.15 K, x2 = 0.7548	876.4 ± 0.2	–
307.86 K, x2 = 0	–	34.65 ± 0.36
307.86 K, x2 = 0.1502	–	32.84 ± 0.34
307.86 K, x2 = 0.3	–	31.2 ± 0.33
307.86 K, x2 = 0.4492	–	29.86 ± 0.32
307.86 K, x2 = 0.5998	–	28.98 ± 0.31
307.86 K, x2 = 0.7548	–	28.06 ± 0.3
308.15 K, x2 = 0	935.4 ± 0.3	–
308.15 K, x2 = 0.1502	921.5 ± 0.3	–
308.15 K, x2 = 0.3	908.3 ± 0.2	–
308.15 K, x2 = 0.4492	895.9 ± 0.2	–
308.15 K, x2 = 0.5998	883.8 ± 0.2	–
308.15 K, x2 = 0.7548	871.8 ± 0.2	–
313.15 K, x2 = 0	930.9 ± 0.3	–
313.15 K, x2 = 0.1502	917 ± 0.2	–
313.15 K, x2 = 0.3	903.8 ± 0.2	–
313.15 K, x2 = 0.4492	891.3 ± 0.2	–
313.15 K, x2 = 0.5998	879.2 ± 0.2	–
313.15 K, x2 = 0.7548	867.2 ± 0.2	–
317.86 K, x2 = 0	–	33.37 ± 0.35
317.86 K, x2 = 0.1502	–	31.7 ± 0.33
317.86 K, x2 = 0.3	–	30.21 ± 0.32
317.86 K, x2 = 0.4492	–	28.77 ± 0.31
317.86 K, x2 = 0.5998	–	27.61 ± 0.3
317.86 K, x2 = 0.7548	–	26.85 ± 0.29
318.15 K, x2 = 0	926.3 ± 0.3	–
318.15 K, x2 = 0.1502	912.4 ± 0.2	–
318.15 K, x2 = 0.3	899.2 ± 0.2	–
318.15 K, x2 = 0.4492	886.7 ± 0.2	–
318.15 K, x2 = 0.5998	874.6 ± 0.2	–
318.15 K, x2 = 0.7548	862.5 ± 0.2	–
323.15 K, x2 = 0	921.7 ± 0.3	–
323.15 K, x2 = 0.1502	907.8 ± 0.2	–
323.15 K, x2 = 0.3	894.6 ± 0.2	–
323.15 K, x2 = 0.4492	882 ± 0.2	–
323.15 K, x2 = 0.5998	869.9 ± 0.2	–
323.15 K, x2 = 0.7548	857.9 ± 0.2	–
327.88 K, x2 = 0	–	32.03 ± 0.34
327.88 K, x2 = 0.1502	–	30.5 ± 0.33
327.88 K, x2 = 0.3	–	29.04 ± 0.32
327.88 K, x2 = 0.4492	–	27.62 ± 0.31
327.88 K, x2 = 0.5998	–	26.59 ± 0.31
327.88 K, x2 = 0.7548	–	25.7 ± 0.3
328.15 K, x2 = 0	917.9 ± 0.2	–
328.15 K, x2 = 0.1502	903.3 ± 0.2	–
328.15 K, x2 = 0.3	890.1 ± 0.2	–
328.15 K, x2 = 0.4492	877.5 ± 0.2	–
328.15 K, x2 = 0.5998	865.3 ± 0.2	–
328.15 K, x2 = 0.7548	853.2 ± 0.2	–
333.15 K, x2 = 0	913.2 ± 0.2	–
333.15 K, x2 = 0.1502	899 ± 0.2	–
333.15 K, x2 = 0.3	885.7 ± 0.2	–
333.15 K, x2 = 0.4492	873 ± 0.2	–
333.15 K, x2 = 0.5998	860.7 ± 0.2	–
333.15 K, x2 = 0.7548	848.5 ± 0.2	–
